Source: patent US10800789B2, “Antiviral compounds” (Gilead Pharmasset LLC, priority 2012, dated 2020)
Where two headings read alike, the source gives them in different places.

How the values were obtained:
[1] = test system: stable HCV 1b RLuc replicon cells (dicistronic genotype 1b Con1 replicon); test: Renilla luciferase HCV replicon reporter assay, genotype 1b; type: cell-based; conditions: Hepatitis C virus, 72 h, stable 1b Con1 RLuc replicon cells, 72 hours; read-out: 1b
How it was run: (§1)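 Antiviral EC50 was determined in HCV replicon cells (stable RLuc lines for 1a H77, 1b Con1, 2a JFH-1 with NS5A L31; J6 NS5A chimera with M31) treated 72 h with compound. Renilla luciferase was then quantified.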

[2] = test system: stable HCV 1a RLuc replicon cells (dicistronic genotype 1a H77 replicon); test: Renilla luciferase HCV replicon reporter assay, genotype 1a; type: cell-based; conditions: Hepatitis C virus, 72 h, stable 1a H77 RLuc replicon cells
How it was run: as §1

[3] = test system: stable HCV 2a JFH-1 Rluc replicon cells (L31 present in NS5A); test: Renilla luciferase HCV replicon reporter assay, genotype 2a JFH-1; type: cell-based; conditions: Hepatitis C virus
How it was run: as §1

[4] = test system: NS5A chimeric genotype 2a JFH-1 replicon with genotype 2a J6 strain NS5A gene (M31 present); test: Replicon assay, genotype 2a J6 NS5A chimera; type: cell-based, HCV; conditions: Hepatitis C virus
How it was run: as §1

[5] = test system: NS5A chimeric genotype 2a JFH-1 replicon with genotype 2b MD2b-1 strain NS5A gene (M31 present); test: Replicon assay, genotype 2b NS5A chimera; type: cell-based, HCV; conditions: Hepatitis C virus
How it was run: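 Cells carrying the stable or transiently transfected (Huh-Lunet) dicistronic RLuc replicons received 3-fold serial compound dilutions from 10 mM DMSO stocks. After 72 h, cells were lysed and Renilla luciferase read. DMSO served as the no-inhibition control and ITMN-191 above 100×EC50 as the positive control; EC50 by non-linear regression.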

[6] = test system: NS5A chimeric genotype 1b Con1 replicon with genotype 3a S52 strain NS5A gene; test: Replicon assay, genotype 3a NS5A chimera; type: cell-based, HCV; conditions: Hepatitis C virus
[7] = test system: NS5A chimeric genotype 1b Con1 replicon with genotype 4a ED43 strain NS5A gene; test: Replicon assay, genotype 4a NS5A chimera; type: cell-based, HCV; conditions: Hepatitis C virus
[8] = read-out: 2a JFH (nM), genotype 2a JFH-1 replicon (L31 in NS5A), stable cells
[9] = read-out: 2a JFH, stable 2a JFH-1 Rluc replicon cells, L31 in NS5A, activity range
[10] = read-out: 2a J6 (t) (nM), genotype 2a J6 NS5A chimeric replicon (M31), transiently transfected (t) into Huh-Lunet cells
[11] = read-out: 2a J6 (t), transiently transfected (t) into Huh-Lunet cells, activity range
[12] = 2BS, read-out: 2b (s), stably replicating replicon cells (s), activity range
[13] = read-out: 2b (s) (nM), genotype 2b MD2b-1 NS5A chimeric replicon (M31), stably replicating replicon cells (s)
[14] = read-out: 3a (s) (nM), genotype 3a NS5A chimeric replicon, stable replicon cells (s)
[15] = read-out: 3a (s), (s), activity range
[16] = read-out: 4a (s) (nM), genotype 4a NS5A chimeric replicon, stable replicon cells (s)
[17] = read-out: 4a (s), (s), activity range
[18] = read-out: 2b (t) (nM), genotype 2b MD2b-1 NS5A chimeric replicon (M31), transiently transfected (t)
[19] = read-out: 2b (t), transiently transfected (t) into Huh-Lunet cells, activity range

Q: `COC(=O)N[C@@H](C)C(=O)N1[C@@H](C)CC[C@H]1c1ncc(-c2ccc3c(c2)COc2cc4c(ccc5nc([C@@H]6CC[C@H](C)N6C(=O)[C@@H](NC(=O)OC)C(C)C)[nH]c54)cc2-3)[nH]1` [HL] was tested. Which EC50 [1] did it give?
A: Its EC50 is 0.021 nM.

Q: What about the EC50 [2] of the same molecule?
A: Its EC50 is 0.017 nM.

Q: What about the EC50 ([2]; activity range) of the same molecule?
A: The EC50 was less than 0.1 nM.

Q: And the EC50 [3, 8]?
A: Its EC50 is 0.019 nM.

Q: What about the EC50 [3, 9] of the same molecule?
A: Its EC50 is less than 0.1 nM.

Q: And the EC50 [4, 10]?
A: Its EC50 is 1.43 nM.

Q: What about the EC50 [4, 11] of the same molecule?
A: The EC50 was 1 to 44 nM.

Q: And the EC50 [5, 12]?
A: The EC50 was 1 to 44 nM.

Q: What about the EC50 [5, 13] of the same molecule?
A: The EC50 was 3.72 nM.

Q: And the EC50 [6, 14]?
A: Its EC50 is 0.127 nM.

Q: And the EC50 [6, 15]?
A: The EC50 was 0.1 to 0.999 nM.

Q: And the EC50 [7, 16]?
A: Its EC50 is 0.02 nM.

Q: And the EC50 [7, 17]?
A: The EC50 was less than 0.1 nM.

Q: For `COC[C@H]1C[C@@H](c2ncc(-c3ccc4c(c3)COc3cc5c(ccc6nc([C@@H]7C[C@H](C)CN7C(=O)[C@@H](NC(=O)OC)[C@@H](C)OC)[nH]c65)cc3-4)[nH]2)N(C(=O)[C@@H](NC(=O)OC)[C@@H](C)OC)C1` [FW, Methyl {(2S,3R)-3-methoxy-1-[(2S,4S)-2-(9-{2-[(2S,4S)-1-[N-(methoxycarbonyl)-O-methyl-L-threonyl]-4-(methoxymethyl)pyrrolidin-2-yl]-1H-imidazol-5-yl}-1,11-dihydroisochromeno[4′,3′:6,7]naphtho[1,2-d]imidazol-2-yl)-4-methylpyrrolidin-1-yl]-1-oxobutan-2-yl}carbamate], which EC50 [1] is on record?
A: The EC50 was 0.187 nM.

Q: What about the EC50 [2] of the same molecule?
A: The EC50 was 0.121 nM.

Q: And the EC50 ([2]; activity range)?
A: The EC50 was 0.1 to 0.999 nM.

Q: And the EC50 [3, 8]?
A: Its EC50 is 0.054 nM.

Q: What about the EC50 [3, 9] of the same molecule?
A: The EC50 was less than 0.1 nM.

Q: And the EC50 [4, 10]?
A: The EC50 was 0.104 nM.

Q: And the EC50 [4, 11]?
A: The EC50 was 0.1 to 0.999 nM.

Q: And the EC50 [5, 12]?
A: Its EC50 is 0.1 to 0.999 nM.

Q: And the EC50 [5, 13]?
A: The EC50 was 0.773 nM.

Q: And the EC50 [5, 18]?
A: The EC50 was 0.399 nM.

Q: What about the EC50 [5, 19] of the same molecule?
A: The EC50 was 0.1 to 0.999 nM.

Q: And the EC50 [6, 14]?
A: Its EC50 is 1.17 nM.

Q: And the EC50 [6, 15]?
A: The EC50 was 1 to 44 nM.

Q: And the EC50 [7, 16]?
A: Its EC50 is 0.08 nM.

Q: And the EC50 [7, 17]?
A: Its EC50 is less than 0.1 nM.

Q: With `COC(=O)N[C@@H](C)C(=O)N1[C@@H](C)CC[C@H]1c1ncc(-c2ccc3c(c2)COc2cc4c(ccc5nc([C@@H]6CC[C@H](C)N6C(=O)[C@H](C)NC(=O)OC)[nH]c54)cc2-3)[nH]1` [HF] as the molecule, how does the EC50 [1] read?
A: The EC50 was 0.066 nM.

Q: And the EC50 [2]?
A: The EC50 was 0.043 nM.

Q: And the EC50 ([2]; activity range)?
A: Its EC50 is less than 0.1 nM.

Q: And the EC50 [3, 8]?
A: The EC50 was 0.06 nM.

Q: And the EC50 [3, 9]?
A: The EC50 was less than 0.1 nM.

Q: And the EC50 [4, 10]?
A: The EC50 was 19.5 nM.

Q: And the EC50 [4, 11]?
A: Its EC50 is 1 to 44 nM.

Q: What about the EC50 [5, 12] of the same molecule?
A: The EC50 was 1 to 44 nM.

Q: What about the EC50 [5, 13] of the same molecule?
A: Its EC50 is 16.3 nM.

Q: And the EC50 [6, 14]?
A: Its EC50 is 0.556 nM.

Q: And the EC50 [6, 15]?
A: Its EC50 is 0.1 to 0.999 nM.

Q: What about the EC50 [7, 16] of the same molecule?
A: Its EC50 is 0.111 nM.

Q: What about the EC50 [7, 17] of the same molecule?
A: Its EC50 is 0.1 to 0.999 nM.

Q: With `COC(=O)N[C@H](C(=O)N1[C@@H](C)CC[C@H]1c1nc2ccc3cc4c(cc3c2[nH]1)OCc1cc(-c2cnc([C@@H]3[C@@H]5C[C@@H]5CN3C(=O)[C@@H](NC(=O)OC)[C@@H](C)OC)[nH]2)ccc1-4)C(C)C` [HP] as the molecule, how does the EC50 [1] read?
A: Its EC50 is 0.026 nM.

Q: And the EC50 [2]?
A: Its EC50 is 0.019 nM.

Q: What about the EC50 ([2]; activity range) of the same molecule?
A: Its EC50 is less than 0.1 nM.

Q: And the EC50 [3, 8]?
A: The EC50 was 0.014 nM.

Q: And the EC50 [3, 9]?
A: Its EC50 is less than 0.1 nM.

Q: What about the EC50 [4, 10] of the same molecule?
A: Its EC50 is 0.22 nM.

Q: What about the EC50 [4, 11] of the same molecule?
A: The EC50 was 0.1 to 0.999 nM.

Q: And the EC50 [5, 12]?
A: Its EC50 is 1 to 44 nM.

Q: What about the EC50 [5, 13] of the same molecule?
A: Its EC50 is 1.02 nM.

Q: What about the EC50 [6, 14] of the same molecule?
A: Its EC50 is 0.079 nM.

Q: What about the EC50 [6, 15] of the same molecule?
A: Its EC50 is less than 0.1 nM.

Q: What about the EC50 [7, 16] of the same molecule?
A: Its EC50 is 0.023 nM.

Q: And the EC50 [7, 17]?
A: The EC50 was less than 0.1 nM.

Q: What does the source list for `CC[C@H]1CC[C@@H](c2ncc(-c3ccc4c(c3)COc3cc5c(ccc6nc([C@@H]7C[C@H](C)CN7C(=O)[C@@H](NC(=O)OC)[C@@H](C)OC)[nH]c65)cc3-4)[nH]2)N1C(=O)[C@@H](NC(=O)OC)C(C)C` [GO]?
A: EC50 [1]: 0.028 nM; EC50 [2]: 0.021 nM; EC50 ([2]; activity range): < 0.1 nM; EC50 [3, 8]: 0.025 nM; EC50 [3, 9]: < 0.1 nM; EC50 [4, 10]: 0.112 nM; EC50 [4, 11]: 0.1 to 0.999 nM; EC50 [5, 12]: 0.1 to 0.999 nM; EC50 [5, 13]: 0.775 nM; EC50 [6, 14]: 1.28 nM; EC50 [6, 15]: 1 to 44 nM; EC50 [7, 16]: 0.029 nM; EC50 [7, 17]: < 0.1 nM

Q: What does the source list for `COC[C@H]1C[C@@H](c2ncc(-c3ccc4c(c3)COc3cc5c(ccc6nc([C@@H]7CC[C@H](C)N7C(=O)[C@@H](NC(=O)OC)[C@@H](C)OC)[nH]c65)cc3-4)[nH]2)N(C(=O)[C@@H](NC(=O)OC)[C@@H](C)OC)C1` [FX, Methyl {(2S,3R)-3-methoxy-1-[(2S,5S)-2-(9-{2-[(2S,4S)-1-[N-(methoxycarbonyl)-O-methyl-L-threonyl]-4-(methoxymethyl)pyrrolidin-2-yl]-1H-imidazol-5-yl}-1,11-dihydroisochromeno[4′,3′:6,7]naphtho[1,2-d]imidazol-2-yl)-5-methylpyrrolidin-1-yl]-1-oxobutan-2-yl}carbamate]?
A: EC50 [1]: 0.06 nM; EC50 [2]: 0.041 nM; EC50 ([2]; activity range): < 0.1 nM; EC50 [3, 8]: 0.024 nM; EC50 [3, 9]: < 0.1 nM; EC50 [4, 10]: 0.064 nM; EC50 [4, 11]: < 0.1 nM; EC50 [5, 12]: 0.1 to 0.999 nM; EC50 [5, 13]: 0.288 nM; EC50 [5, 18]: 0.122 nM; EC50 [5, 19]: 0.1 to 0.999 nM; EC50 [6, 14]: 0.243 nM; EC50 [6, 15]: 0.1 to 0.999 nM; EC50 [7, 16]: 0.031 nM; EC50 [7, 17]: < 0.1 nM
